# Measurements from patent publication US12527794B2, “Compositions, formulations, and methods for hair treatment” (Oddity Labs, LLC, priority 2021, dated 2026).
# What was measured:
# [1] = system: female subjects; assay: Clinical consumer perception study; type: in vivo, human; settings: 0.02% v/v water-based formula every 2 days, 6 weeks, 32 subjects completed
# Protocol: Photographs were taken after 6 weeks. Subjects were female and ranged in age from 27-65 years. Subjects used a simple, water-based formula containing an exemplary compound (at 0.02% v/v) every 2 days in the morning or night on dry or towel-dried hair. Approximately 2 mL was applied directly to the hairline. No randomization was required for the study and subjects were blinded to the name of the test material.
# The clinical test was performed by Eurofins|CRL, Inc. The test followed established, standardized procedures for clinical testing designed to ensure the well-being of clinical study subjects and the generation of reliable study data. Subjects were female and ranged in age from 27-65 years. Subjects used a simple, water-based formula containing a exemplary compound, VII-3 (at 0.02% v/v) every 2 days in the morning or night on dry or towel-dried hair. Approximately 2 mL was applied directly to the hairline. No randomization was required for the study and subjects were blinded to the name of the test material.
# Photographs of subjects' hair were taken 6 weeks after the treatment with the representative compounds (FIG. 6). Subjects were female and ranged in age from 27-65 years. Subjects used a simple, water-based formula containing an exemplary compound VII-3 (at 0.02% v/v) every 2 days in the morning or night on dry or towel-dried hair. […]
# [2] = system: HepG2 cells; assay: Caspase 3/7 activity in HepG2 cells; type: cell-based; settings: HepG2, >2-log concentration range
# Protocol: Cells were treated with either the exemplary compounds or vehicle control containing correspondingly % v/v-matched amounts of DMSO spanning a >2-log concentration range. Data represents mean±s.d. and representative of at least 2 experimental replicates.
# HepG2 cells are an immortalized liver cell line commonly used to study apoptosis induced by small molecules. Cells were treated with either the exemplary compounds or vehicle control containing correspondingly % v/v-matched amounts of DMSO spanning a >2-log concentration range. Data represents mean±s.d. and representative of at least 2 experimental replicates.
# [3] = system: bacteria; assay: SOS chromotest (β-galactosidase activity); type: cell-based; settings: varying concentrations; 4-NQ as known genotoxin
# Protocol: The SOS chromotest is a well-established bacteria-based test for genotoxicity.
# The safety/toxicology profiles of a compound or salt of the present disclosure was evaluated via a series of in vitro genotoxicity assays, including the SOS-chromotest to determine bacterial genotoxicity, and the TK.6 micronucleus assay to determine chromosomal damage and forward mutations. Standard reactive oxygen species (ROS) and caspase 3/7 assay were conducted to determine general cellular toxicity. Moreover, a series of sensitization tests were conducted to predict any potential skin sensitivity. These include the direct peptide reactivity assay to evaluate haptenization, the KeratinoSens reporter assay to determine potential sensitivity via the activation of a cytoprotective pathway, and an immunological assay using human immature monocyte-derived dendritic cells to evaluate any potential immunogenicity.
# [4] = system: Human follicle papilla cells; assay: Functional stability across pH and temperature (follicle papilla cell proliferation); type: cell-based; settings: pre-treated 7 days in pH-adjusted water at varying temperatures; cells dosed 5 μg/mL, 48 hr
# Protocol: FIGS. 7A and 7B show normalized proliferation follicle papilla cell proliferation after 48 hr following treatment with the exemplary compound (VII-3) pre-treated across a range of pH conditions (FIG. 7A) and temperature conditions (FIG. 7B). Data represents mean±s.d. and representative of n=2 donors.
# An exemplary compound (VII-3) was prepared in various solvents (DMSO; dimethyl sulfoxide, DMI; dimethyl isosorbide, or a 1:1 mixture of dimethyl isosorbide and ethanol), the diluted in pH-adjusted water and left at varying temperatures for 7 days. Human follicle papilla cells were dosed at 5 μg/mL with the exemplary compound and further supplemented with 6-bromoindirubin-39-Oxime (BIO), recombinant bone morphogenetic protein-2 (BMP-2), and basic fibroblast growth factor (FGFβ), whose combination was previously found to preserve in vivo dermal papilla gene signatures. Normalized proliferation follicle papilla cell proliferation was analyzed after 48 hr following the treatment with the exemplary compound pre-treated across a range of pH conditions (FIG. 7A) and temperature conditions (FIG. 7B). Data represents mean±s.d. and representative of n=2 donors.
smiles,measurement,setting,value
"CSc1nc(-c2ccco2)nn1S(C)(=O)=O [VII-3, 1H-1,2,4-Triazole, 3-(2-furanyl)-1-(methylsulfonyl)-5-(methylthio)-]",Adverse effects,[1],0/32 (0%)
same,normalized caspase 3/7 activity,[2],did not exhibit any caspase activation
same,"genotoxic effects, normalized β-galactosidase activity",[3],did not exhibit any genotoxic effects
same,functional stability (normalized follicle papilla cell proliferation after pre-treatment),[4],functionally stable across physiologically-relevant pH and temperature ranges
